Test results as given in US20240299353A1, “COMPOSITIONS AND METHODS FOR TREATING […] 5-MEO-DMT” (Alvarius Pharmaceuticals Ltd., priority 2021, published 2024).

Tests used:
5-HT1AR = assay: Western blot of 5-HT1AR in brain regions, chronic cocaine ± 5-MeO-DMT; assay type: in vivo, Male Wistar rats
Description: Male Wistar rats aged 7 weeks were acclimatized to the facility for 1 week prior to the beginning of the study. […] Animals were euthanized 23- or 119-hours following vehicle or 5-MeO-DMT administration.
Following euthanasia brain regions of interest were isolated. Briefly, the olfactory bulbs were removed before the brain was placed in a rat brain matrix (FIG. 2A). Sterile blades were inserted at positions 2 and 3 (FIG. 2B) to extract a coronal slice containing the Bregma+˜0.2-+˜2.2 coordinates (FIG. 2C). From this tissue slice a blunted 12 G needle was used to punch dissect the NAc and dorsal striatum (DS) (FIG. 2D-2E) identified using the rat brain atlas (Panxinos and Watson 2nd edition). The PFC, hippocampus (Hip) and amygdala (Amyg) were then blunt dissected (FIG. 3A-3D). All regions were frozen in liquid nitrogen and stored at −80° C. until processed.
These treatment groups were used for the molecular assessment of addiction-linked markers.
Determination of protein concentration—a bicinchoninic acid assay (BCA, ThermoFisher) was conducted to determine the total protein concentration in tissue lysates following manufacturer's instructions. Briefly, bovine serum albumin (BSA) standards were prepared in a serial dilution (0-2.0 mg protein/ml) and 200 μl working reagent (50:1, reagent A: reagent B) was added to each of the standards and samples in a 96 well plate (Greiner). For tissue lysates a 1:10 dilution was performed with cell lysis buffer to ensure absorbance values lay within the working range established by the standards. All samples and standards were added in duplicate. The plate was covered and incubated for 30 mins at 37° C. before absorbance was read at 562 nm on a plate reader (SpectraMax M3). The absorbance values were used to form a standard curve of known protein concentrations and protein concentration of samples were derived using the equation of the line. All samples were standardized to the lowest protein concentration using distilled H20 (dH2O).
SDS-PAGE and Western Blotting—Following equalisation of protein concentrations, 6× sample loading buffer (15% SDS, 15% […], 50% glycerol, 0.01% bromophenol blue, […]) was added to each sample using a dilution factor of 1:5 of the total volumes before boiling at 100° C. for 5 mins. Samples were stored at −20° C. until use. One dimensional sodium-dodecyl-sulphate polyacrylamide gel electrophoresis (SDS-PAGE) was used for protein separation based on molecular weight. The percentage of acrylamide in the resolving or stacking gel was determined by the molecular weight of the protein of interest. In this instance all gels consisted of a 5% stacking gel and a 10% resolving gel with the exception of mGluR5, G9a (8%) and H3K9Me2 (12%). 20 μg of protein was loaded and resolved using SDS-PAGE. Gel electrophoresis was conducted at 80V while the protein was in the stacking gel, once it migrated to the resolving gel the voltage was increased to 120V and ran for 90 mins. Samples were transferred to a 0.45 μm polyvinylidene difluoride (PVDF) membrane (Analab) for 1 hour at 100V and blocked in 5% milk blocking solution made in tris-buffered saline containing tween®-20 (TBS-T, Sigma) for 90 mins. Primary antibodies (FIG. 5) were diluted in 5% BSA in TBS-T and incubated with membranes overnight at 4° C. or for 2 hours at room temperature. After incubation with primary antibodies the membranes were washed in TBS-T for 4×10 minutes before incubation with 1:2000 anti-rabbit and 1:2000 anti-mouse Alexa Fluro® conjugated secondary antibodies (Invitrogen) in 2% milk for 1 hour at room temperature. Membranes were washed in TBS-T for 4×10 minutes and in TBS for 1×10-minute wash. Proteins were visualized using Odyssey® infrared imaging system. Protein expression was quantified using Image Studio Lite (Version 5.2) and expression intensities were normalized to a house keeping protein, α-Tubulin or β-actin.

[1] = test system: primary hippocampal neurons; assay: Antagonist pre-treatment studies of neuronal structural change, Sholl analysis; assay type: cell-based, rat; conditions: for AUC of the Sholl plot / normalised AUC of the Sholl plot: vehicle pre-treated; for neuronal structural complexity (normalised AUC): meta-analysis, combined vehicle pre-treated groups
Experimental: Primary hippocampal cultures were grown on 18 mm glass coverslips at a density of 1×10^6 cells as described. On 3 DIV all cells underwent a full medium change. […] On 4 DIV, all cells underwent a second full medium change. Cells in the combination group were treated with 2 μM 5-MeO-DMT for a further 24 hours with all other groups beginning a 24-hour treatment. After treatment was completed the cells were fixed and processed as described below.
Based on the findings with other psychedelic drugs that share structural and behavioral similarities to 5-MeO-DMT we selected ANA-12 (Sigma), an antagonist of TrkB, the BDNF receptor, and rapamycin (ThermoFischer) an antagonist of the mammalian target of rapamycin (mTOR). Due to the affinity and known behavioral change induced by 5-MeO-DMT at the 5-HT1AR and 5-HT2AR we assessed their contribution to structural changes mediated by 5-MeO-DMT. The receptors were antagonized with WAY-100635 maleate (Tocris) or Ketanserin (Axxora), respectively. For all antagonist studies the antagonist under investigation was added 15 mins prior to drug treatment. […] ANA-12, Ketanserin and rapamycin were dissolved in dimethyl sulfoxide (DMSO) with a final concentration of 0.01-0.04% for treatment. WAY100635 was dissolved in sterile dH2O.
After termination of drug treatment coverslips were processed and imaged as outlined for immunocytochemistry. In all instances NeuN antibody staining was used to visualize projections from the cell body. Images were analyzed using the Simple Neurite Tracer and Sholl analysis plug-ins for ImageJ Fiji. For the Sholl analysis circle radii of 2 μm increments were used. All images were taken and analyzed by an experimenter blinded to treatment conditions.
Statistical Analysis—Data are represented as mean±SEM. Statistical analyses were performed using GraphPad Prism (version 5). For analyses involving comparison of three or more groups, a one-way ANOVA with Bonferroni's post-hoc test was utilized where appropriate. No statistics were calculated for the individual points of the Sholl plots, instead, statistical analyses were performed on the aggregate data, the area under the curve (AUC) of the Sholl plot. Secondary measurements were the Nmax, the maximum number of intersections measured by the Sholl analysis, which indicated the number of projections emanating from a neuron and the average length of primary neurites originating from the cell soma.

[2] = hippocampus, 120 h, all treatment groups
[3] = ANA-12 study, 5-MeO-DMT or cocaine alone
[4] = WAY100635 study, 5-MeO-DMT (20 μM) or cocaine (25 μM) alone
[5] = rapamycin study, 5-MeO-DMT or cocaine alone

Structure (SMILES) | 5-HT1AR expression (5-HT1AR; amygdala, 24 h, cocaine, p=0.0172, no post hoc differences) | 5-HT1AR expression (5-HT1AR; amygdala, 120 h, cocaine) | 5-HT1AR expression (5-HT1AR; hippocampus, 24 h, repeated cocaine) | 5-HT1AR expression (5-HT1AR; [2]) | AUC of the Sholl plot [1, 3] | normalised AUC of the Sholl plot [1, 4] | neuronal structural complexity (normalised AUC) ([1]; agent alone) | normalised AUC of the Sholl plot [1, 5] | 5-HT1AR expression (5-HT1AR; hippocampus, 24 h, 10 mg/kg 5-MeO-DMT alone (decrease)) | 5-HT1AR expression (5-HT1AR; hippocampus, 24 h, 20 mg/kg 5-MeO-DMT alone) | 5-HT1AR expression (5-HT1AR; hippocampus, 24 h, cocaine + either 5-MeO-DMT concentration (10 or 20 mg/kg)) | AUC of the Sholl plot ([1]; ANA-12 study, cocaine and 5-MeO-DMT combined) | average neurite length ([1]; ANA-12 study, 5-MeO-DMT alone) | average neurite length ([1]; ANA-12 study, 5-MeO-DMT in combination with cocaine) | normalised AUC of the Sholl plot ([1]; WAY100635 study, cocaine followed by 5-MeO-DMT) | average neurite length ([1]; WAY100635 study, 5-Meo+vehicle) | normalised AUC of the Sholl plot ([1]; ketanserin study, cocaine followed by 5-MeO-DMT) | neuronal structural complexity (normalised AUC) ([1]; cocaine+5-MeO-DMT combination) | normalised AUC of the Sholl plot ([1]; rapamycin study, cocaine followed by 5-MeO-DMT)
COC(=O)[C@H]1[C@@H](OC(=O)c2ccccc2)C[C@@H]2CC[C@H]1N2C.Cl [cocaine, cocaine hydrochloride, reference compound] | significant cocaine effect | does not persist to 120 hours | decreased 5-HT1AR expression | equal across treatment groups | increased the AUC relative to control | increased the normalised AUC | significantly increased neuronal structural complexity | increased the normalised AUC |  |  |  |  |  |  |  |  |  |  | 
COc1ccc2[nH]cc(CCN(C)C)c2c1 [5-MeO-DMT, 5-methoxy-N,N-dimethyltryptamine] |  |  |  | equal across treatment groups | increased the AUC relative to control | increased the normalised AUC | significantly increased neuronal structural complexity | increased the normalised AUC | only the 10 mg/kg concentration achieves significance | trend towards decreasing expression levels | restoring receptor expression to levels comparable to control | increased the AUC relative to control | significantly increased | significantly increased | no change between the combination group and control | significantly increased | reduced AUC relative to control | significantly increased neuronal structural complexity | no change between the combination group and control
